How the values were obtained:
[1] = stability of stock and working solutions (LC-MS/MS); assay type: physicochemical; conditions: stored at 4°C for at least 6 months
Experimental: The stabilities of stock and working solutions for both analyte and internal standard were also evaluated. Stock solutions of analyte and IS were stored at −20°C for 9 months.

in vitro = in vitro ADME
Experimental: Short-term stabilities were also determined for post-preparation QC standards stored at room temperature for 10 hours. The QC results obtained after storage were compared with spiked concentration values by determining the percentage ratios of experimental values divided by spiked values.

Structure (SMILES)	stability of working solutions ([1]; two QC standards (1.25 and 80 ng/mL))	recovery at 8 h, 1.25 ng/mL (in vitro; rat plasma QC samples, rat plasma, bench top (8 hr) at room temp, 1.25 ng/ml)	recovery at 8 h, 80 ng/mL (in vitro; rat plasma QC samples, rat plasma, bench top (8 hr) at room temp, 80.00 ng/ml)	recovery at 3 days, 1.25 ng/mL (in vitro; rat plasma QC samples, rat plasma, freeze thaw (3 cycles), 1.25 ng/ml)	recovery at 3 days, 80 ng/mL (in vitro; rat plasma QC samples, rat plasma, freeze thaw (3 cycles), 80.00 ng/ml)	recovery at 10 h, 1.25 ng/mL (in vitro; rat, post-extraction (post-preparation) rat plasma QC samples, post extraction (10 hr) at room temp, 1.25 ng/ml)	recovery at 10 h, 80 ng/mL (in vitro; rat, post-extraction (post-preparation) rat plasma QC samples, post extraction (10 hr) at room temp, 80.00 ng/ml)	stability of working solutions ([1]; 7.5 ng/mL IS)
Cc1ccc(C)c(COc2cc(NC(=O)c3cc(C(F)(F)F)cc(C(F)(F)F)c3)ccc2N(C)S(C)(=O)=O)c1 [BMCL26]	99.60–105.00%	103%	103%	98.1%	105%	102%	108%	
Cc1ccc(C)c(COc2cc(NC(=O)C3CCCCC3)ccc2N(C)S(C)(=O)=O)c1 [JCC76, N-(3-(2,5-dimethylbenzyloxy)-4-(methylmethylsulfonamido)phenyl)cyclohexanecaboxamide, reference compound]								115.60%
